Experimental data from patent publication US8198456B2, “Dihydropyridine derivatives as useful as protein kinase inhibitors” (Bayer Intellectual Property GmbH, priority 2006, dated 2012).
pIC50: −log10 of the molar value. Where a name gives a salt, the structure may show the parent alone.

target: T1, recombinant human c-MET kinase enzyme domain (Homo sapiens, UniProt P08581); experiment: c-MET receptor tyrosine kinase Homogeneous Time Resolved Fluorescence assay (HTRF); assay type: biochemical; conditions: Biological Example 1 and/or Biological Example 2
T1 construct: Recombinant c-Met kinase domain (amino acids 960-1390); His (N); made in house; host or cells: baculovirus expression system (insect cells; SF21 is named only for the alternative format)
T1 sequence (P08581 960-1390): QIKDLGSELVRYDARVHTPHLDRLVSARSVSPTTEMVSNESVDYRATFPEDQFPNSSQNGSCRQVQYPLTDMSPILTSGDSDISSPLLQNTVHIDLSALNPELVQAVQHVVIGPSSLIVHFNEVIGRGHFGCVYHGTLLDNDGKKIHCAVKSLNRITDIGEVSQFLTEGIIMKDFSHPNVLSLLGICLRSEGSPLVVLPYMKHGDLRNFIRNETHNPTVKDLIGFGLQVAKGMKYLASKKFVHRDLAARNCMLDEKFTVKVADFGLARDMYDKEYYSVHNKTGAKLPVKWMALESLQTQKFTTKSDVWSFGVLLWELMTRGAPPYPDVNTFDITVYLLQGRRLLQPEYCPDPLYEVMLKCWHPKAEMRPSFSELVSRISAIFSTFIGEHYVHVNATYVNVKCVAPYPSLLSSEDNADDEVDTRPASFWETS
Method in brief: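 His-tagged c-Met kinase domain (aa 960-1390, baculovirus) phosphorylated biotinylated poly-Glu-Tyr (37 nM) with 20 μM ATP in HEPES pH 7.4, Mg/Mn, DTT, 1% DMSO, 20 min at ambient temperature, EDTA-stopped. HTRF read (PT66-Eu/streptavidin-XL665, 665/620 nm ratio) after 4 h; IC50 from eight 1:3.16 dilutions.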

Q: `CC1=C(C#N)C(c2cccc(C(=O)Nc3cccc(C)n3)c2)C(C#N)=C(C)N1` [compound 62, 3-(3,5-dicyano-1,4-dihydro-2,6-dimethyl-4-pyridinyl)-N-(6-methyl-2-pyridinyl)-benzamide] was tested. Which pIC50 did it give?
A: 5.60 to 6.30

Q: How did the pIC50 turn out when `CC1=C(C#N)C(c2ccc3[nH]nc(C(=O)NCCN(C)C)c3c2)C(C#N)=C(C)N1` [103.1, 5-(3,5-dicyano-1,4-dihydro-2,6-dimethyl-4-pyridinyl)-N-[2-(dimethylamino)-ethyl]-1H-indazole-3-carboxamide, TFA salt] was run?
A: > 7.00

Q: With `CC1=C(C#N)C(c2ccc3[nH]ncc3c2)C(C#N)=C(c2ccc(N3CCOCC3)nc2)N1` (centres unmarked) [compound 271, 1,4-dihydro-4-(1H-indazol-5-yl)-6-methyl-6′-(4-morpholinyl)-[2,3′-bipyridine]-3,5-dicarbonitrile] as the compound, how does the pIC50 read?
A: > 7.00

Q: With `CC1=C(C#N)C(c2ccc3[nH]nc(-c4ccncc4)c3c2)C(C#N)=C(C)N1` [94.2, 1,4-dihydro-2,6-dimethyl-4-[3-(4-pyridinyl)-1H-indazol-5-yl]-3,5-pyridinedicarbonitrile, acetic acid salt] as the compound, how does the pIC50 read?
A: > 7.00

Q: With `CC1=C(C#N)C(c2cccc(NC(=O)c3ccccn3)c2)C(C#N)=C(C)N1` [compound 58, N-[3-(3,5-dicyano-1,4-dihydro-2,6-dimethyl-4-pyridinyl)phenyl]-2-pyridinecarboxamide] as the compound, how does the pIC50 read?
A: 6.30 to 7.00

Q: `CC1=C(C#N)C(c2ccc3[nH]nc(NCc4ccc(N5CCOCC5)cc4)c3c2)C(C#N)=C(C)N1` [compound 163, 1,4-dihydro-2,6-dimethyl-4-[3-[[[4-(4-morpholinyl)phenyl]methyl]amino]-1H-indazol-5-yl]-3,5-pyridinedicarbonitrile] was tested. Which pIC50 did it give?
A: > 7.00

Q: `CC1=C(C#N)C(c2cccc(NC(=O)c3ncc[nH]3)c2)C(C#N)=C(C)N1` [compound 65, N-[3-(3,5-dicyano-1,4-dihydro-2,6-dimethyl-4-pyridinyl)phenyl]-1H-imidazole-2-carboxamide] was tested. Which pIC50 did it give?
A: 6.30 to 7.00

Q: `CC1=C(C#N)C(c2cccc(C(=O)NCCCn3ccnc3)n2)C(C#N)=C(C)N1` [compound 191, 3′,5′-dicyano-1′,4′-dihydro-N-[3-(1H-imidazol-1-yl)propyl]-2′,6′-dimethyl-[2,4′-bipyridine]-6-carboxamide] was tested. Which pIC50 did it give?
A: 6.30 to 7.00

Q: `CC1=C(C#N)C(c2ccc3[nH]nc(CN4CCOCC4)c3c2)C(C#N)=C(C)N1` [compound 83, 1,4-dihydro-2,6-dimethyl-4-[3-(4-morpholinylmethyl)-1H-indazol-5-yl]-3,5-pyridinedicarbonitrile] was tested. Which pIC50 did it give?
A: 5.60 to 6.30

Q: `CC1=C(C#N)C(c2ccc3[nH]nc(NCC4CCN(C(=O)OC(C)(C)C)CC4)c3c2)C(C#N)=C(C)N1` [compound 131, 4-[[[5-(3,5-dicyano-1,4-dihydro-2,6-dimethyl-4-pyridinyl)-1H-indazol-3-yl]-amino]methyl]-1-piperidinecarboxylic acid 1,1-dimethylethyl ester] was tested. Which pIC50 did it give?
A: 5.60 to 6.30

Q: With `CC1=C(C#N)C(c2ccc3[nH]ncc3c2)C(C#N)=C(c2cccc([N+](=O)[O-])c2)N1` (centres unmarked) [compound 250, 1,4-dihydro-4-(1H-indazol-5-yl)-2-methyl-6-(3-nitrophenyl)-3,5-pyridinedicarbonitrile] as the compound, how does the pIC50 read?
A: > 7.00

Q: `CC1=C(C#N)C(c2ccc3[nH]nc(C=O)c3c2)C(C#N)=C(C)N1` [compound 145, 4-(3-formyl-1H-indazol-5-yl)-1,4-dihydro-2,6-dimethyl-3,5-pyridinedicarbonitrile] was tested. Which pIC50 did it give?
A: > 7.00

Q: With `CC1=C(C#N)C(c2ccc3[nH]ncc3c2)C(C#N)=C(C2CCCN(C(=O)OCc3ccccc3)C2)N1` (centres unmarked) [compound 251, 3-[3,5-dicyano-1,4-dihydro-4-(1H-indazol-5-yl)-6-methyl-2-pyridinyl]-1-piperidinecarboxylic acid phenylmethyl ester] as the compound, how does the pIC50 read?
A: 5.60 to 6.30

Q: `CC1=C(C#N)C(c2ccc3c(c2)c(N)nn3C(=O)c2ccccc2)C(C#N)=C(C)N1` [compound 95, 4-(3-amino-1-benzoyl-1H-indazol-5-yl)-1,4-dihydro-2,6-dimethyl-3,5-pyridinedicarbonitrile] was tested. Which pIC50 did it give?
A: > 7.00

Q: With `CC1=C(C#N)C(c2ccc3[nH]nc(NCC4CCNCC4)c3c2)C(C#N)=C(C)N1` [compound 133, 1,4-dihydro-2,6-dimethyl-4-[3-[(4-piperidinylmethyl)amino]-1H-indazol-5-yl]-3,5-pyridinedicarbonitrile] as the compound, how does the pIC50 read?
A: > 7.00

Q: `CC1=C(C#N)C(c2ccc3[nH]nc(C(=O)N(C)C)c3c2)C(C#N)=C(C)N1` [114.1, 5-(3,5-dicyano-2,6-dimethyl-1,4-dihydro-pyridin-4-yl)-1H-indazole-3-carboxylic acid dimethylamide, TFA salt] was tested. Which pIC50 did it give?
A: > 7.00

Q: How did the pIC50 turn out when `CC1=C(C#N)C(c2ccc3[nH]nc(N)c3c2)C(C#N)=C(C)N1CCO` [compound 299, 4-(3-amino-1H-indazol-5-yl)-1,4-dihydro-1-(2-hydroxyethyl)-2,6-dimethyl-3,5-pyridinedicarbonitrile] was run?
A: > 7.00

Q: How did the pIC50 turn out when `CC1=C(C#N)C(c2cccc(C(=O)Nc3nccs3)c2)C(C#N)=C(C)N1` [compound 61, 3-(3,5-dicyano-1,4-dihydro-2,6-dimethyl-4-pyridinyl)-N-2-thiazolyl-benzamide] was run?
A: 6.30 to 7.00

Q: `CC1=C(C#N)C(c2ccc3[nH]nc(NCc4ccc(N)cc4)c3c2)C(C#N)=C(C)N1` [compound 128, 4-[3-[[(4-aminophenyl)methyl]amino]-1H-indazol-5-yl]-1,4-dihydro-2,6-dimethyl-3,5-pyridinedicarbonitrile] was tested. Which pIC50 did it give?
A: > 7.00

Q: With `CC1=C(C#N)C(c2ccc3[nH]nc(C)c3c2)C(C#N)=C(C)N1` [compound 81, 1,4-dihydro-2,6-dimethyl-4-(3-methyl-1H-indazol-5-yl)-3,5-pyridinedicarbonitrile] as the compound, how does the pIC50 read?
A: > 7.00

Q: With `CC1=C(C#N)C(c2cccc(C(=O)Nc3ccc(N(C)C)cn3)c2)C(C#N)=C(C)N1` [compound 63, 3-(3,5-dicyano-1,4-dihydro-2,6-dimethyl-4-pyridinyl)-N-[5-(dimethylamino)-2-pyridinyl]-benzamide] as the compound, how does the pIC50 read?
A: 6.30 to 7.00

Q: How did the pIC50 turn out when `CON(C)C(=O)c1n[nH]c2ccc(C3C(C#N)=C(C)NC(C)=C3C#N)cc12` [compound 143, 5-(3,5-dicyano-1,4-dihydro-2,6-dimethyl-4-pyridinyl)-N-methoxy-N-methyl-1H-indazole-3-carboxamide] was run?
A: > 7.00

Q: How did the pIC50 turn out when `CC1=C(C#N)C(c2ccc3[nH]nc(NC(=O)c4ccccc4)c3c2)C(C#N)=C(C)N1` [compound 129, N-[5-(3,5-dicyano-1,4-dihydro-2,6-dimethyl-4-pyridinyl)-1H-indazol-3-yl]-benzamide] was run?
A: > 7.00

Q: How did the pIC50 turn out when `CC1=C(C#N)C(c2ccc3[nH]nc(C(=O)NCCCN(C)C)c3c2)C(C#N)=C(C)N1` [106.1, 5-(3,5-dicyano-2,6-dimethyl-1,4-dihydro-pyridin-4-yl)-1H-indazole-3-carboxylic acid (3-dimethylamino-propyl)-amide, TFA salt] was run?
A: > 7.00

Q: How did the pIC50 turn out when `CC1=C(C#N)C(c2ccc3[nH]nc(-c4ncc[nH]4)c3c2)C(C#N)=C(C)N1` [compound 170, 1,4-dihydro-4-[3-(1H-imidazol-2-yl)-1H-indazol-5-yl]-2,6-dimethyl-3,5-pyridinedicarbonitrile] was run?
A: > 7.00

Q: With `COC(=O)c1cccc(C2C(C#N)=C(C)NC(c3cccc(N)c3)=C2C#N)c1` (centres unmarked) [compound 235, 3-[2-(3-aminophenyl)-3,5-dicyano-1,4-dihydro-6-methyl-4-pyridinyl]-benzoic acid, methyl ester] as the compound, how does the pIC50 read?
A: 6.30 to 7.00

Q: With `COC(=O)c1cccc(C2C(C#N)=C(C)NC(c3ccc(N)cc3)=C2C#N)c1` (centres unmarked) [compound 236, 3-[2-(4-aminophenyl)-3,5-dicyano-1,4-dihydro-6-methyl-4-pyridinyl]-benzoic acid, methyl ester] as the compound, how does the pIC50 read?
A: 6.30 to 7.00

Q: With `CC1=C(C#N)C(c2ccc3[nH]nc(CO)c3c2)C(C#N)=C(C)N1` [compound 144, 1,4-dihydro-4-[3-(hydroxymethyl)-1H-indazol-5-yl]-2,6-dimethyl-3,5-pyridinedicarbonitrile] as the compound, how does the pIC50 read?
A: > 7.00

Q: With `CC1=C(C#N)C(c2ccc3[nH]nc(C(=O)NCCN4CCCC4)c3c2)C(C#N)=C(C)N1` [compound 124, 5-(3,5-dicyano-1,4-dihydro-2,6-dimethyl-4-pyridinyl)-N-[2-(1-pyrrolidinyl)ethyl]-1H-indazole-3-carboxamide] as the compound, how does the pIC50 read?
A: > 7.00

Q: How did the pIC50 turn out when `CC1=C(C#N)C(c2ccc3[nH]nc(N)c3c2)C(C#N)=C(c2cc(C)oc2C)N1` (centres unmarked) [compound 281, 4-(3-amino-1H-indazol-5-yl)-2-(2,5-dimethyl-3-furanyl)-1,4-dihydro-6-methyl-3,5-pyridinedicarbonitrile] was run?
A: > 7.00

Q: With `CC1=C(C#N)C(c2ccc3[nH]ncc3c2)C(C#N)=C(C)N1C` [compound 289, 1,4-dihydro-4-(1H-indazol-5-yl)-1,2,6-trimethyl-3,5-pyridinedicarbonitrile] as the compound, how does the pIC50 read?
A: > 7.00

Q: `CC1=C(C#N)C(c2cccc(C(=O)NCCCn3ccnc3)c2)C(C#N)=C(C)N1` [compound 32, 3-(3,5-dicyano-1,4-dihydro-2,6-dimethyl-4-pyridinyl)-N-[3-(1H-imidazol-1-yl)propyl]-benzamide] was tested. Which pIC50 did it give?
A: 6.30 to 7.00

Q: With `CC1=C(C#N)C(c2ccc3[nH]ncc3c2)C(C#N)=C(c2ccco2)N1` (centres unmarked) [compound 267, 2-(2-furanyl)-1,4-dihydro-4-(1H-indazol-5-yl)-6-methyl-3,5-pyridinedicarbonitrile] as the compound, how does the pIC50 read?
A: > 7.00

Q: With `CCCN1CCN(c2n[nH]c3ccc(C4C(C#N)=C(C)NC(C)=C4C#N)cc23)CC1` [165.1, 2,6-dimethyl-4-[3-(4-propyl-piperazin-1-yl)-1H-indazol-5-yl]-1,4-dihydropyridine-3,5-dicarbonitrile, TFA salt] as the compound, how does the pIC50 read?
A: > 7.00

Q: With `CC1=C(C#N)C(c2ccc3[nH]nc(-c4cnn(C5CCNCC5)c4)c3c2)C(C#N)=C(C)N1` [compound 157, 1,4-dihydro-2,6-dimethyl-4-[3-[1-(4-piperidinyl)-1H-pyrazol-4-yl]-1H-indazol-5-yl]-3,5-pyridinedicarbonitrile] as the compound, how does the pIC50 read?
A: > 7.00
